Earlier results in US20250134875A1, “FORMULATIONS OF ALK-5 KINASE INHIBITORS AND USES THEREOF” (Thirona Bio, Inc., priority 2023, published 2025).

Columns and labels:
TGF-β = details: cited from earlier work
[1] = tested on: mouse fibroblasts and fat precursor cells; details: cited from earlier work
TNF = target: T1, TNF (Homo sapiens, UniProt P01375); details: cited from earlier work
T1 construct: host or cells: Dupuytren's nodules of patients (in vivo, endogenous)

[2] = tested on: TGF-β-induced expression of ACTA2, Col1a1 and Col3a1; details: 3D culture model of DC-specimens; cited from earlier work
rat PD models = details: cited from earlier work
[3] = tested on: fibroblasts derived from human PD plaque; details: cited from earlier work
mouse skin = details: cited from earlier work
A549 cells = details: cited from earlier work
[4] = tested on: human outer root sheath cells; details: cited from earlier work

T1 sequence (P01375 77-233 limits assumed): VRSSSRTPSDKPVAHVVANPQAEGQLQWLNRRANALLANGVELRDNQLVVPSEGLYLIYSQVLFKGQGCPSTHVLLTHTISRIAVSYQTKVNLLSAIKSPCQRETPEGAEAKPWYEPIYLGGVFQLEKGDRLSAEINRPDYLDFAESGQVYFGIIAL

fresolimumab: TGF-β neutralizing antibody which targets all three TGF-β isoforms
Clinical skin disease (fibrosis), modified Rodnan skin score (MRSS) (TGF-β; systemic sclerosis patients (N=15), 1 mg/kg twice or 5 mg/kg once, p=0.0002 within 3 weeks): dramatically reversed
Pro-fibrotic TGF-β gene expression profiles in the skin (TGF-β; systemic sclerosis patients): decreased
Systemic side effects (TGF-β; systemic sclerosis patients): significant systemic side effects, notably bleeding

COc1ccc(/C=C/C(=O)Nc2ccccc2C(=O)O)cc1OC [Tanilast]
Brown fat adipogenesis [1]: induced brown fat adipogenesis

adalimumab
Phenotype of myofibroblasts (TNF; Phase 2a trial, intranodular): downregulated the phenotype of myofibroblasts
Nodule harness and size by ultrasound (TNF; Phase 2b trial): decreased nodule harness and size

Cc1cccc(-c2nn(C(=S)Nc3ccccc3)cc2-c2ccnc3ccccc23)n1 [Formulation A83-01]
Brown fat adipogenesis [1]: induced brown fat adipogenesis

NC(=O)c1ccc(-c2nc(-c3ccc4c(c3)OCO4)c(-c3ccccn3)[nH]2)cc1 [SB-431542]
Brown fat adipogenesis [1]: induced brown fat adipogenesis
TGF-β-induced expression of ACTA2, Col1a1 and Col3a1 [2]: suppressed

Cc1cccc(-c2[nH]c(Cc3cccc(C(N)=O)c3)nc2-c2ccc3nccnc3c2)n1 [IN-1130]
Curvature and fibrosis (rat PD models): improved curvature and fibrosis
TGF-β1-induced production of PAI-1, fibronectin, collagen 1 and collagen 4 [3]: significantly reduced

Cc1csc(-c2[nH]cnc2-c2ccc3ncsc3c2)n1 [TP0427736]
Average hair follicle length during transition from late anagen to catagen phase (mouse skin; repeated topical application): suppressed the shortening
Smad2 phosphorylation in mouse skin (mouse skin; topical application): significantly decreased
Smad2/3 phosphorylation (A549 cells): inhibited
Growth inhibition of human outer root sheath cells [4]: decreased the growth inhibition

Cc1cccc(-c2nn3c(c2-c2ccnc4ccc(C(N)=O)cc24)CCC3)n1 [LY2157299]
Brown fat adipogenesis [1]: induced brown fat adipogenesis
